Assay [1] relates to M. tuberculosis XDR (resistant to isoniazid, rifampicin, amikacin and moxifloxacin). In words: microbe, parasite or virus in culture. It is filed as cell-based. To be noted: Mycobacterium tuberculosis, 504 h, read-out: MIC M. tb XDR.
In assay [2] the test system is M. tuberculosis MDR (resistant to isoniazid and rifampicin). In words: microbe, parasite or virus in culture. It counts as cell-based. To be noted: Mycobacterium tuberculosis, 504 h, read-out: MIC M. tb MDR.

Molecules are shown by their SMILES. Converted amounts (≈) assume the structure as drawn.

With `C[C@]1(COc2ccc(S(=O)(=O)N3CCN(c4ccc(OC(F)(F)F)cc4)CC3)cc2)Cn2cc([N+](=O)[O-])nc2O1` [IIC4, (R)-2-{4-[4-(4-trifluoromethoxyphenyl)piperazin-1-yl]sulfonylphenoxymethyl}-2,3-dihydro-2-methyl-6-nitroimidazo[2,1-b]oxazole], the MIC in assay [1] and in assay [2] was 2 µg/mL (≈ 3.43 µM) throughout.

For `CCOC(=O)N1CCN(S(=O)(=O)c2ccc(OC[C@@]3(C)Cn4cc([N+](=O)[O-])nc4O3)cc2)CC1` [IIC5, (R)-ethyl-{4-[4-(2-methyl-6-nitro-2,3-dihydroimidazo[2,1-b]oxazol-2yl)methoxyphenyl]sulfonyl}piperazine-1-carboxylate], the MIC in assay [1] and in assay [2] was 2 µg/mL (≈ 4.04 µM) each time.

On to `C[C@]1(COc2ccc(S(=O)(=O)N3CCN(C(=O)c4ccccc4)CC3)cc2)Cn2cc([N+](=O)[O-])nc2O1` [IIC6, (R)-{4-[4-(2-methyl-6-nitro-2,3-dihydroimidazo[2,1-b]oxazol-2yl)methoxyphenyl]sulfonyl}piperazine-1-yl(phenyl)methanone], for which the MIC in assay [1] and in assay [2] was 2 µg/mL (≈ 3.79 µM) in each case.

As for `C[C@]1(COc2ccc(S(=O)(=O)N3CCCCC3)cc2)Cn2cc([N+](=O)[O-])nc2O1` [IIC7, (R)-2-{4-(piperidin-1-ylsulfonyl)phenoxymethyl}-2,3-dihydro-2-methyl-6-nitroimidazo[2,1-b]oxazole], the MIC in assay [1] and in assay [2] was 1 µg/mL (≈ 2.37 µM) each time.

`C[C@]1(COc2ccc(S(=O)(=O)N3CCC(c4ccccc4)CC3)cc2)Cn2cc([N+](=O)[O-])nc2O1` [IIC8, (R)-2-{4-[(4-phenylpiperidin-1-yl)sulfonyl]phenoxymethyl}-2,3-dihydro-2-methyl-6-nitroimidazo[2,1-b]oxazole]: the MIC in assay [1] and in assay [2] was 0.5 µg/mL (≈ 1 µM) throughout.

Turning to `C[C@]1(COc2ccc(S(=O)(=O)N3CCCC3)cc2)Cn2cc([N+](=O)[O-])nc2O1` [IIC9, (R)-2-{4-(pyrrolidin-1-ylsulfonyl)phenoxymethyl}-2,3-dihydro-2-methyl-6-nitroimidazo[2,1-b]oxazole], the MIC in assay [1] and in assay [2] was 1 µg/mL (≈ 2.45 µM) in each case.

On to `C[C@]1(COc2ccc(S(=O)(=O)N3CCOCC3)cc2)Cn2cc([N+](=O)[O-])nc2O1` [IIC10, (R)-2-{4-(morpholinsulfonyl)phenoxymethyl}-2,3-dihydro-2-methyl-6-nitroimidazo[2,1-b]oxazole], for which the MIC in assay [1] and in assay [2] was 0.5 µg/mL (≈ 1.18 µM) throughout.
